Where two headings read alike, the source gives them in different places. Marks after values point to notes of the source that are not given here.
Key:
Format in all cases: in vivo, mice (C57BL/6)
[1] = system: diabetic nephrosis animal models; test: Histopathological change (H&E) in liver, kidney, pancreas; conditions: for Kidney: Medullar apoptosis / Kidney: Medullar mineralization / Kidney: NHL / Kidney: bowman's capsule hyperplasia / Kidney: pappillary mineralization / Liver: Apoptosis / Liver: Cytoplasmic glycogen / Liver: Eosinophlic focus of cellular alteration / Liver: Mononuclear cell infiltrate / Liver: NHL / Pancrease: Apoptosis / Pancrease: NHL / Pancrease: islet degeneration / Pancrease: islet hypertrophy / Pancrease: islet, mononuclear cell infillitrate: count in group of 10 animals
Description: (§1) STZ (Sigma-aldrich, S0130, 40 mg/kg b.w., in 0.1 M citrate buffer pH 4.5) was intraperitoneally administered to 9-week-old male mice (C57BL/6) once/1 day for 5 days to perform a first disease induction. After 7 weeks of the first induction, a second induction was performed using the same method as the first induction. For 5 days of an STZ administration period for the first induction, 10% sucrose was administered as drinking water. In addition, after 14 days of the second administration, blood glucose levels were confirmed to confirm the induction rate, and the induced animals were separated into groups. Experimental substances (R)-4-{(R)-1-[7-(3,4,5-trimethoxy-phenyl)-[1,6] naphthyridin-5-yloxy]-ethyl}pyrrolidin-2-one (BI-1002494) and cromolyn (OC-101) were administered orally into the stomach at 10 mL/kg using an administration syringe (sonde) before 16:00 daily for 12 weeks at a frequency of 7 days/week at doses shown in Table 1 below, and dexamethasone was orally administered as a positive control substance.
At the end of the observation period, the mice in each group of Example 1 were confirmed to be dead, and the liver, kidney, and pancreas were extracted and fixed with 10% neutral buffered formalin (NBF) in at least 20 times the tissue volume. The fixed tissue was sectioned to a thickness of approximately 4 mm and then produced into a paraffin block through general tissue processing and embedding processes. Thereafter, the tissue was sectioned to a thickness of 4 μm using a rotary microtome, and then H&E staining was performed, and histopathological changes were observed.

[2] = system: diabetic nephrosis animal models; conditions: for CRE, Mean / GLU, Mean / T-CHO, Mean: after observation period, fasted
Description: as §1
After the observation period for mice of each group in Example 1 was terminated, all surviving animals were fasted in the same manner as when measuring blood glucose levels, and then anesthetized by inhaling isoflurane, and blood was collected from the abdominal vena cava through laparotomy. After the blood collection was completed, the veins and arteries were cut under anesthesia and exsanguinated. The collected blood was left at room temperature for 30 minutes or more and then centrifuged at 3,000 rpm for 20 minutes. Thereafter, glucose, Blood urea nitrogen (BUN), and creatinine were analyzed using an automated blood biochemistry analyzer (Hitachi 3100, Hitachi Co. Ltd., Japan). Indoxyl sulfate (a substance that was mainly produced in the intestines to cause renal injury, and a substance that caused end-stage renal failure by advancing renal function damage in patients with renal failure during hemodialysis) was analyzed using LC MS/MS. In addition, blood insulin was analyzed according to a method represented by a commercial Mouse Insulin ELISA KIT (#AKRIN-011T, Sibayagi Co. Ltd., Japan).

[3] = Feed intake of mice in diabetic nephrosis model; design: Feed intake, Mean: unit not given here
Description: as §1

[4] = administered group (12.5, 25, 50 mg/kg)

## COc1cc(-c2cc3ncccc3c(O[C@H](C)[C@H]3CNC(=O)C3)n2)cc(OC)c1OC [BI-1002494, (R)-4-{(R)-1-[7-(3,4,5-trimethoxy-phenyl)-[1,6]naphthyridin-5-yloxy]-ethyl}pyrrolidin-2-one]
[1]; G4, 12.5 mg/kg oral
  Kidney: Medullar apoptosis: 3
  Kidney: Medullar mineralization: 0
  Kidney: NHL: 7
  Kidney: bowman's capsule hyperplasia: 0
  Kidney: pappillary mineralization: 0
  Liver: Apoptosis: 2
  Liver: Cytoplasmic glycogen: 1
  Liver: Eosinophlic focus of cellular alteration: 0
  Liver: Mononuclear cell infiltrate: 1
  Liver: NHL: 7
  Pancrease: Apoptosis: 1
  Pancrease: NHL: 5
  Pancrease: islet degeneration: 2
  Pancrease: islet hypertrophy: 1
  Pancrease: islet, mononuclear cell infillitrate: 1
[1]; G5, 25 mg/kg oral
  Kidney: Medullar apoptosis: 2
  Kidney: Medullar mineralization: 1
  Kidney: NHL: 7
  Kidney: bowman's capsule hyperplasia: 0
  Kidney: pappillary mineralization: 0
  Liver: Apoptosis: 3
  Liver: Cytoplasmic glycogen: 0
  Liver: Eosinophlic focus of cellular alteration: 0
  Liver: Mononuclear cell infiltrate: 2
  Liver: NHL: 7
  Pancrease: Apoptosis: 0
  Pancrease: NHL: 8
  Pancrease: islet degeneration: 1
  Pancrease: islet hypertrophy: 1
  Pancrease: islet, mononuclear cell infillitrate: 0
[1]; G6/G7, 50 mg/kg oral
  Kidney: Medullar apoptosis: 1
  Kidney: Medullar mineralization: 2
  Kidney: NHL: 7
  Kidney: bowman's capsule hyperplasia: 0
  Kidney: pappillary mineralization: 0
  Liver: Apoptosis: 2
  Liver: Cytoplasmic glycogen: 0
  Liver: Eosinophlic focus of cellular alteration: 0
  Liver: Mononuclear cell infiltrate: 1
  Liver: NHL: 8
  Pancrease: Apoptosis: 0
  Pancrease: NHL: 7
  Pancrease: islet degeneration: 1
  Pancrease: islet hypertrophy: 2
  Pancrease: islet, mononuclear cell infillitrate: 0
[1]; [4]
  Cytoplasmic glycogen in the liver: reduced in the liver
  Medullar apoptosis in the kidney: reduced in the kidney in a dose-dependent manner
[2]; 12.5 mg/kg/day oral
  CRE, Mean: 0.1 mg/dL
  GLU, Mean: 317.1^# mg/dL
  T-CHO, Mean: 141.6 mg/dL
[2]; 25 mg/kg/day oral
  CRE, Mean: 0.1 mg/dL
  GLU, Mean: 280.0^# mg/dL
  T-CHO, Mean: 125.0 mg/dL
[2]; 50 mg/kg/day oral
  CRE, Mean: 0.1 mg/dL
  GLU, Mean: 213.6^# mg/dL
  T-CHO, Mean: 138.7 mg/dL
[2]; after induction of diabetic renal diseases
  Glucose, summary: decreased in a dose-dependent manner
[2]; all administered groups (12.5, 25, 50 mg/kg)
  GLU compared with disease control group: statistically significantly reduced, and a clear dose dependence was observed
[3]; 12.5 mg/kg administered group, after week 4 of administration
  Feed intake compared to the disease control group: statistically significantly decreased
[3]; 12.5 mg/kg/day oral, week 0
  Feed intake, Mean: 6.97
[3]; 12.5 mg/kg/day oral, week 1
  Feed intake, Mean: 5.61
[3]; 12.5 mg/kg/day oral, week 2
  Feed intake, Mean: 6.23
[3]; 12.5 mg/kg/day oral, week 3
  Feed intake, Mean: 4.58
[3]; 12.5 mg/kg/day oral, week 4
  Feed intake, Mean: 5.14^#
[3]; 12.5 mg/kg/day oral, week 5
  Feed intake, Mean: 4.98
[3]; 12.5 mg/kg/day oral, week 6
  Feed intake, Mean: 5.31
[3]; 12.5 mg/kg/day oral, week 7
  Feed intake, Mean: 5.21
[3]; 12.5 mg/kg/day oral, week 8
  Feed intake, Mean: 4.26
[3]; 12.5 mg/kg/day oral, week 9
  Feed intake, Mean: 4.39
[3]; 12.5 mg/kg/day oral, week 10
  Feed intake, Mean: 4.64
[3]; 25 mg/kg administered group, after week 6 of administration
  Feed intake compared to the disease control group: statistically significantly decreased
[3]; 25 mg/kg/day oral, week 0
  Feed intake, Mean: 6.73
[3]; 25 mg/kg/day oral, week 1
  Feed intake, Mean: 5.63
[3]; 25 mg/kg/day oral, week 2
  Feed intake, Mean: 5.59
[3]; 25 mg/kg/day oral, week 3
  Feed intake, Mean: 5.26
[3]; 25 mg/kg/day oral, week 4
  Feed intake, Mean: 4.99
[3]; 25 mg/kg/day oral, week 5
  Feed intake, Mean: 5.15
[3]; 25 mg/kg/day oral, week 6
  Feed intake, Mean: 5.51^#
[3]; 25 mg/kg/day oral, week 7
  Feed intake, Mean: 5.04
[3]; 25 mg/kg/day oral, week 8
  Feed intake, Mean: 4.95
[3]; 25 mg/kg/day oral, week 9
  Feed intake, Mean: 4.62
[3]; 25 mg/kg/day oral, week 10
  Feed intake, Mean: 4.63
[3]; 50 mg/kg administered group, after week 8 of administration
  Feed intake compared to the disease control group: statistically significantly decreased
[3]; 50 mg/kg/day oral, week 0
  Feed intake, Mean: 5.98
[3]; 50 mg/kg/day oral, week 1
  Feed intake, Mean: 5.74
[3]; 50 mg/kg/day oral, week 2
  Feed intake, Mean: 4.98
[3]; 50 mg/kg/day oral, week 3
  Feed intake, Mean: 5.36
[3]; 50 mg/kg/day oral, week 4
  Feed intake, Mean: 5.14
[3]; 50 mg/kg/day oral, week 5
  Feed intake, Mean: 4.89
[3]; 50 mg/kg/day oral, week 6
  Feed intake, Mean: 5.64
[3]; 50 mg/kg/day oral, week 7
  Feed intake, Mean: 5.11
[3]; 50 mg/kg/day oral, week 8
  Feed intake, Mean: 4.86^#
[3]; 50 mg/kg/day oral, week 9
  Feed intake, Mean: 4.30
[3]; 50 mg/kg/day oral, week 10
  Feed intake, Mean: 4.14

Source: US20240197695A1, “COMPOUND FOR PREVENTION OR TREATMENT OF KIDNEY DISEASE” (ONCOCROSS CO.,LTD, priority 2021, published 2024)
